According to ChEMBL document CHEMBL1201862, “PubChem BioAssay data set” (2004):
Active and inactive are the calls of the source.

How the values were obtained:
[1] = target: Nonstructural protein 1 (Influenza A virus, UniProt Q194T2); type: functional, Influenza A virus (A/California/07/2009(H1N1))
[2] = target: T1, High affinity choline transporter 1 (Homo sapiens, UniProt Q9GZV3); experiment: CHT inhibitors, dose response, cell-based, 5-point CRC, membrane potential dye (AID 504840); type: functional
T1 sequence (Q9GZV3 whole entry): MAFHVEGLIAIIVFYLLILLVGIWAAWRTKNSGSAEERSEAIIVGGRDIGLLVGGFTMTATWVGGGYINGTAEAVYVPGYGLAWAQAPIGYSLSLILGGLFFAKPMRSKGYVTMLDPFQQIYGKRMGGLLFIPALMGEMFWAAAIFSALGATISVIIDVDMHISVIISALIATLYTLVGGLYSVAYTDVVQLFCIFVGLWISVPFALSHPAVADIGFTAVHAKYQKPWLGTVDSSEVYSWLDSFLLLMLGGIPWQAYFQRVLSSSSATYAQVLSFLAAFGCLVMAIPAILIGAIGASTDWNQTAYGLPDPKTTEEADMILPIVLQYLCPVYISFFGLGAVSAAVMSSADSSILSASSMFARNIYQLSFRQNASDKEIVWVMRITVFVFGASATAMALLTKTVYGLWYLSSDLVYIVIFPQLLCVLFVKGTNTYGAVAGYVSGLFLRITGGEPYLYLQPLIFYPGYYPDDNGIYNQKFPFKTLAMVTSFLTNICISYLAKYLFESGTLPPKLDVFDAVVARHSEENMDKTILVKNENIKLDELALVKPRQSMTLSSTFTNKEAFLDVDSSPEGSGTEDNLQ

[3] = target: 26S proteasome non-ATPase regulatory subunit 14 (Homo sapiens, UniProt O00487); experiment: inhibition of proteasome subunit RPN11 – biochemical, fluorescence polarization, uHTS hits, confirmation (AID 602368); type: functional
[4] = target: 72 kDa type IV collagenase (Homo sapiens, UniProt P08253); experiment: Dose Response validation of uHTS RPN11 inhibitor hits using a MMP-2 Fluorescence assay.; type: functional
[5] = target: Prothrombin (Bos taurus, UniProt P00735); experiment: thrombin inhibition, dose response, biochemical, fluorescence polarization, uHTS hits (AID 602369); type: functional
[6] = miR-122 activators in hepatoma reporter cells, dose response, cell-based, Huh7 psiCHECK-miR122, Renilla luciferase, cherry-picked (AID 651956); type: functional;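 further: huh7 hepatoma cells stably carrying a psiCHECK-2 miR-122 sensor plasmid; renilla luciferase signal reporting endogenous miR-122 activity after 48 h compound exposure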
[7] = target: T2, DNA repair and recombination protein RAD54-like (Homo sapiens, UniProt Q92698); experiment: inhibitors of human RAD54 branch migration, confirmation, biochemical, fluorescence, cherry-picked samples, dose series (AID 651657); type: functional
T2 sequence (Q92698 whole entry): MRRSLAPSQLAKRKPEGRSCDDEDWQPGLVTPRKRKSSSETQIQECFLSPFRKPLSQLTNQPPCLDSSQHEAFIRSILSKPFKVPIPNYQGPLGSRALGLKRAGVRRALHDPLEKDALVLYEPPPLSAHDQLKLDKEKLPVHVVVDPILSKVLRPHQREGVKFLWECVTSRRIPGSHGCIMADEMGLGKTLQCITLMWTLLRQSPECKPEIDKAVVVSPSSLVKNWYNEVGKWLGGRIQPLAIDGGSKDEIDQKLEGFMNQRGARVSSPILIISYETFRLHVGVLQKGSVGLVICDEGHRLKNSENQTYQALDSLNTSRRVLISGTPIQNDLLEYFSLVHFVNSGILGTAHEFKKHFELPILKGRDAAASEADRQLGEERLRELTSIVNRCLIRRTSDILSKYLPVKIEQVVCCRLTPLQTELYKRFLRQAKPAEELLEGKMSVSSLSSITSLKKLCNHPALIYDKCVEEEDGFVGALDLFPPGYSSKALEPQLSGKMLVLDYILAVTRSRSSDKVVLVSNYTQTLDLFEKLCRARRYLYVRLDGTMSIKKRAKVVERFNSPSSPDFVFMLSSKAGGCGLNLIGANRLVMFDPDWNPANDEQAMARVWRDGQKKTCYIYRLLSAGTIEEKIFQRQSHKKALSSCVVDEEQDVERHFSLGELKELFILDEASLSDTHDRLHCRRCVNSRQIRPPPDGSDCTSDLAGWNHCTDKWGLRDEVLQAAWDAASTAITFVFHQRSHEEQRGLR

[8] = target: T3, Probable nicotinate-nucleotide adenylyltransferase (Staphylococcus aureus (strain N315), UniProt P65502); type: functional, Staphylococcus aureus subsp. aureus N315;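 on IC50 Mean: confirmatory dose-response retesting of NadD inhibitor hits first found in an ultra-high-throughput screen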
[9] = target: T3, Probable nicotinate-nucleotide adenylyltransferase; type: functional, Staphylococcus aureus subsp. aureus N315; settings: read-out: IC50_Mean
[10] = target: Beta-galactosidase (Escherichia coli, UniProt Q8VNN2); experiment: PubChem AID 485352; type: functional
[11] = target: T4, Type-1 angiotensin II receptor (Homo sapiens, UniProt P30556); experiment: AT1 receptor antagonists, dose response, selectivity assay for APJ receptor antagonist project, cell-based, uHTS hits (AID 463214); type: functional;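 further: antagonist potency against angiotensin II stimulated AT1 response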
T4 sequence (P30556 whole entry): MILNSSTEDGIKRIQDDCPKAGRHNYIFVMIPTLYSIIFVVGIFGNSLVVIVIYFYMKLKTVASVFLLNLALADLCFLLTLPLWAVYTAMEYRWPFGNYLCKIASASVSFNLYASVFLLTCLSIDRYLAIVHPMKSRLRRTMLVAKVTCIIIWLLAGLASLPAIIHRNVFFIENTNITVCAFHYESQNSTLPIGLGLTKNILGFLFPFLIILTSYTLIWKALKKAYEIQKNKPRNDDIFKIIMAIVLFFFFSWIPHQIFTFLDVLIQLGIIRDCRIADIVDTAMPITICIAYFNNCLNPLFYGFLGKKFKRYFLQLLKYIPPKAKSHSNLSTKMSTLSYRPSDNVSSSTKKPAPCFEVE

[12] = growth suppression of PTEN-null colon cells, dose response, cell-based, HCT116 PTEN knockout (AID 1047); type: functional;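 further: HCT116 colon tumor cells with PTEN knocked out; cells exposed to compound for 60 hours before readout; potency for loss of cell viability measured by luminescence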
[13] = growth suppression of beta-catenin-knockout colon cells, dose response, cell-based, HCT116, human colon tumor (AID 1045); type: functional;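 further: HCT116 colon tumor cells with beta catenin knocked out; cells exposed to compound for 60 hours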
[14] = Luminescence Cell-Based Dose Retest to Confirm Inhibitors of Cancer Stem Cells. [Related pubchem assays (depositor defined):AID2717, AID2721]; type: functional; settings: Homo sapiens
[15] = target: Beta-2 adrenergic receptor (Homo sapiens, UniProt P07550); experiment: beta2AR agonists driving receptor internalization, dose response, cell-based, FAP fluorogen, flow cytometry, cherry pick 1 (AID 588763); type: functional
[16] = target: T5, Melanocortin receptor 4 (Homo sapiens, UniProt P32245); experiment: MC4R antagonist potency on cAMP, dose response, cell-based, TR-FRET, biased antagonists (AID 602298); type: functional;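 further: antagonist potency against agonist-stimulated cAMP production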
[17] = nonselective inhibitors of cellular cAMP signaling, dose response, counter-screen for MC4R biased antagonist project, cell-based, TR-FRET cAMP detection (AID 602305); type: functional;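 further: U2OS cells stimulated with forskolin near its EC80 as the cAMP inducer; potency is for inhibition of forskolin-stimulated cAMP signaling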
[18] = target: T6, Short transient receptor potential channel 4 (Mus musculus, UniProt Q9QUQ5); experiment: mouse TRPC4 channel activators, dose response, cell-based, HEK293 TRPC4/mu-opioid, Fluo-4 calcium (AID 434937); type: functional
T6 sequence (Q9QUQ5 whole entry): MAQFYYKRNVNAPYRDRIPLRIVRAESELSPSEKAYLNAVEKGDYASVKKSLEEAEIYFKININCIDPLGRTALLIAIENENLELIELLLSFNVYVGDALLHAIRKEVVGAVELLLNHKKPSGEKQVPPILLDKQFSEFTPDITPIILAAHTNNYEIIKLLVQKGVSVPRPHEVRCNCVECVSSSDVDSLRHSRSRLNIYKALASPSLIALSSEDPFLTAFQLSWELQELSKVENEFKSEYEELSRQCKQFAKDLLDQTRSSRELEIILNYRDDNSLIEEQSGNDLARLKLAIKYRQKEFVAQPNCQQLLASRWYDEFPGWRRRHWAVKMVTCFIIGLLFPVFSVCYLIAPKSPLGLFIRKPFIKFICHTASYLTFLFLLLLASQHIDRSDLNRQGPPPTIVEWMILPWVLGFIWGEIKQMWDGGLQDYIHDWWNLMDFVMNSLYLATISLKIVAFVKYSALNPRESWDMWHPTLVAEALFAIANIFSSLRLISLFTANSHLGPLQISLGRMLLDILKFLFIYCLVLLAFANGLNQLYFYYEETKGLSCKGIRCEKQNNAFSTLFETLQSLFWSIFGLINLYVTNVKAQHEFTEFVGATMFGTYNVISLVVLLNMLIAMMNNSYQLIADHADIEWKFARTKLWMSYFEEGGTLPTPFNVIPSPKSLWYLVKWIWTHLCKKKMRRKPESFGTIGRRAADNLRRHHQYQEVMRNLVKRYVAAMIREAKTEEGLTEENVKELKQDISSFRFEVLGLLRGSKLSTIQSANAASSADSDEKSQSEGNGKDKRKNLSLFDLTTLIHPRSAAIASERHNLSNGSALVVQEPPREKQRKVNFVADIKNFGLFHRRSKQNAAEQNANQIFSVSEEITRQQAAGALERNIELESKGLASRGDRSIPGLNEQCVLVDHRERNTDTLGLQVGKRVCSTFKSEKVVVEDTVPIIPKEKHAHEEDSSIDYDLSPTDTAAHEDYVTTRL

[19] = target: T5, Melanocortin receptor 4; type: functional, cell-based
[20] = target: Paired box protein Pax-8 (Homo sapiens, UniProt Q06710); experiment: inhibitors of PAX8-driven TPO luciferase reporter, dose response, RMG-I cells, cherry-pick (AID 687027); type: functional, cell-based;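 further: luciferase reporter driven by Pax8 target thyroperoxidase promoter measured by SteadyGlo luminescence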
[21] = target: Ras and Rab interactor 1/Tyrosine-protein kinase ABL1 (Homo sapiens, UniProt P00519+Q13671); type: functional;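 further: biochemical TR-FRET dose-response test measuring inhibition of binding between Rin1 and Abl proteins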
Sequence of Ras and Rab interactor 1/Tyrosine-protein kinase ABL1 (P00519 whole entry): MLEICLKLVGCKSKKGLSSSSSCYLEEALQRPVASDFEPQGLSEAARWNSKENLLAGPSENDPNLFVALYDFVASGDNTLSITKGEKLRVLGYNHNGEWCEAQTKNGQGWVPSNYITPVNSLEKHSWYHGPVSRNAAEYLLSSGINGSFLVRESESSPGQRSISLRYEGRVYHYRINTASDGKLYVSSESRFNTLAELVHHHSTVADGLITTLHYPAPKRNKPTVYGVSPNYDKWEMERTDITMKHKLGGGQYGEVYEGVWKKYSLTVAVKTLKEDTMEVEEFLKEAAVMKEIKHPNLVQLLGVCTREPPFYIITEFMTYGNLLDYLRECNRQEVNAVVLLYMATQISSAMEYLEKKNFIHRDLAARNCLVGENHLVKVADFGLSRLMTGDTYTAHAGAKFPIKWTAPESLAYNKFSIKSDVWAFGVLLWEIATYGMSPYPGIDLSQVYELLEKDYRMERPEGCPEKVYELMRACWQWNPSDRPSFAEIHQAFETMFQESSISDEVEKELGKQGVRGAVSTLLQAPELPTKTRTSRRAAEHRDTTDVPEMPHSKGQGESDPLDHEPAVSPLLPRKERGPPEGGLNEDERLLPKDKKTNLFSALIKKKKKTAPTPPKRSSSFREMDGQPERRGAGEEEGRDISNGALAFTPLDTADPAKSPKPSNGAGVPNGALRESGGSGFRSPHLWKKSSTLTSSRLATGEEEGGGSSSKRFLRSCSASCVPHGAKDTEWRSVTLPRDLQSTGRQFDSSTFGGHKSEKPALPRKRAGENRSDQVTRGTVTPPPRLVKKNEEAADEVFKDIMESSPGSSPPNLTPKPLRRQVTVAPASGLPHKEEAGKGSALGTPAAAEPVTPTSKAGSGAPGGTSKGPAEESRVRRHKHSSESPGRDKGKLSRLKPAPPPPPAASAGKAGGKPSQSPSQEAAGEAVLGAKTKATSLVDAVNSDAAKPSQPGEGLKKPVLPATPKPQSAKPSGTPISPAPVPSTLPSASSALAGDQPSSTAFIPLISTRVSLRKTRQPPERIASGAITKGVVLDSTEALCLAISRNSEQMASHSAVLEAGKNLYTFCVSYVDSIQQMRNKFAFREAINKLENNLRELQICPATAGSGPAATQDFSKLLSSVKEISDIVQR
Sequence of Ras and Rab interactor 1/Tyrosine-protein kinase ABL1 (Q13671 whole entry): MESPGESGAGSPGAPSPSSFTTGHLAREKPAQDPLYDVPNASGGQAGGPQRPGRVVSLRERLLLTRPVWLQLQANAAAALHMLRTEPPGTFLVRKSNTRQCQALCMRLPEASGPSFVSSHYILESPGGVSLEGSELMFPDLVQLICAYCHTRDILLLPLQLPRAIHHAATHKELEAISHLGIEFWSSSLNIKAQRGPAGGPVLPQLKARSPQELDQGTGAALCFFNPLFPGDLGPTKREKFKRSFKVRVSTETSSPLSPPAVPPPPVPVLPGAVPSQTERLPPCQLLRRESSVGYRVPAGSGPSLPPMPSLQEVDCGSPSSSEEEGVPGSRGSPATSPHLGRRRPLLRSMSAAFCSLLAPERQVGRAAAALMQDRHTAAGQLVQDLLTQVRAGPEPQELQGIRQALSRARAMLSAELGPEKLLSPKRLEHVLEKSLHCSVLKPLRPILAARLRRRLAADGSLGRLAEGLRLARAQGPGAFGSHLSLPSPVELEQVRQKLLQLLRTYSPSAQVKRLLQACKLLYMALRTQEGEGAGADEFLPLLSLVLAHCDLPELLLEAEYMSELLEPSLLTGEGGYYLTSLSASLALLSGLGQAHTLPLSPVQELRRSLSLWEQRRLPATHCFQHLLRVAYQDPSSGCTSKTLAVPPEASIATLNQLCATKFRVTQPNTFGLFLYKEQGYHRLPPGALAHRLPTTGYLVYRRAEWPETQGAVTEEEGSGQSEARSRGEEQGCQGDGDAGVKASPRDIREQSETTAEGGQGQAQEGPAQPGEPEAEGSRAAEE

T3 sequence (P65502 whole entry): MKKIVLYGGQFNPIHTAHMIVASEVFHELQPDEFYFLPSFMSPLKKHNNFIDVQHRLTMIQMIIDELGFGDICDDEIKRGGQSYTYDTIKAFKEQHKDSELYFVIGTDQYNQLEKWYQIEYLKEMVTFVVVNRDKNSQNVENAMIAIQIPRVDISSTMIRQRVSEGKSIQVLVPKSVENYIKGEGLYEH
T5 sequence (P32245 whole entry): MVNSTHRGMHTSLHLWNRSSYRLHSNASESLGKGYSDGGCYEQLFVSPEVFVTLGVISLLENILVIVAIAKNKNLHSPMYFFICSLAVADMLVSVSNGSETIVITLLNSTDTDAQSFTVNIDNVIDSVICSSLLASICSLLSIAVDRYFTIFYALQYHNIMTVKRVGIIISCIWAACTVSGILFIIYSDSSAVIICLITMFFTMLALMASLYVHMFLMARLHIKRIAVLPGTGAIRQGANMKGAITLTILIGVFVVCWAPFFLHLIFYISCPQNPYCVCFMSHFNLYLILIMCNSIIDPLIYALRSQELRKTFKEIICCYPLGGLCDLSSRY
Sequence of 72 kDa type IV collagenase (P08253 whole entry): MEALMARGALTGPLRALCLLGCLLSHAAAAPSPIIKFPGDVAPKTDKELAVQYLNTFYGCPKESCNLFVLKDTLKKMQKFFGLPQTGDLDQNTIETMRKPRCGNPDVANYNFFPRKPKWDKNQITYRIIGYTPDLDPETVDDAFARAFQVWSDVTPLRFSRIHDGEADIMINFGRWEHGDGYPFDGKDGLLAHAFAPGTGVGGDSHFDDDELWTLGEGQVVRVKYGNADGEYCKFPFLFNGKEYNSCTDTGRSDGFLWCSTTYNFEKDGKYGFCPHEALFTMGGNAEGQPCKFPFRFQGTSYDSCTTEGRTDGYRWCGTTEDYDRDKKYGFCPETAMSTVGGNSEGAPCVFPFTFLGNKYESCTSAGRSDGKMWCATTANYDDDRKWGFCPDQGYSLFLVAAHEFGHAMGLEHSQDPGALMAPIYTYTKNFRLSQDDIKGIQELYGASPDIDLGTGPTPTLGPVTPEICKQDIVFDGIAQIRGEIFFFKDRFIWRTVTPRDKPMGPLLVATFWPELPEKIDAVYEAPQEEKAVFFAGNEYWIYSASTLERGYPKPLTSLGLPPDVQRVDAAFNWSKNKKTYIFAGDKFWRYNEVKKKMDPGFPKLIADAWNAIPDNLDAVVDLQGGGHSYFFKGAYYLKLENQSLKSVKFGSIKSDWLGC
Sequence of 26S proteasome non-ATPase regulatory subunit 14 (O00487 whole entry): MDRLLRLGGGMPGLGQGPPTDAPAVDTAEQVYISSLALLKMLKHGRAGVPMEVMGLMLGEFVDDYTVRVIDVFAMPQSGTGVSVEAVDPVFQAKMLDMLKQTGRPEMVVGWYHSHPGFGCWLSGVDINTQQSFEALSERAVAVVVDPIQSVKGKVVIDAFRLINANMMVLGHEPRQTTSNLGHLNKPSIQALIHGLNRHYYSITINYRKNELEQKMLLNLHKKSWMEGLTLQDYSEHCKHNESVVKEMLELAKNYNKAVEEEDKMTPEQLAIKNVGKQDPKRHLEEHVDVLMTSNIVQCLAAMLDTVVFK
Sequence of Paired box protein Pax-8 (Q06710 whole entry): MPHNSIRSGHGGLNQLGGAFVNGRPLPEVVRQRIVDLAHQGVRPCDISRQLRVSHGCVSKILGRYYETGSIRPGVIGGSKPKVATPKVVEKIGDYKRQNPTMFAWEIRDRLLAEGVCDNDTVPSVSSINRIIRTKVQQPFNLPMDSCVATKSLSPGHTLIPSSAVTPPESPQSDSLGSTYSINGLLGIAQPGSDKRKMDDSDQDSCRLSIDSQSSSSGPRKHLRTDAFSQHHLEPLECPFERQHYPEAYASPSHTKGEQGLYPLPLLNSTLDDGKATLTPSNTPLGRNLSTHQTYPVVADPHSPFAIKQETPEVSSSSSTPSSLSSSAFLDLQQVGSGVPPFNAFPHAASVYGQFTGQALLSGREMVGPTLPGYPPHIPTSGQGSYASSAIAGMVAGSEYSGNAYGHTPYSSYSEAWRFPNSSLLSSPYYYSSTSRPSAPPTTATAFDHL
Sequence of Beta-2 adrenergic receptor (P07550 whole entry): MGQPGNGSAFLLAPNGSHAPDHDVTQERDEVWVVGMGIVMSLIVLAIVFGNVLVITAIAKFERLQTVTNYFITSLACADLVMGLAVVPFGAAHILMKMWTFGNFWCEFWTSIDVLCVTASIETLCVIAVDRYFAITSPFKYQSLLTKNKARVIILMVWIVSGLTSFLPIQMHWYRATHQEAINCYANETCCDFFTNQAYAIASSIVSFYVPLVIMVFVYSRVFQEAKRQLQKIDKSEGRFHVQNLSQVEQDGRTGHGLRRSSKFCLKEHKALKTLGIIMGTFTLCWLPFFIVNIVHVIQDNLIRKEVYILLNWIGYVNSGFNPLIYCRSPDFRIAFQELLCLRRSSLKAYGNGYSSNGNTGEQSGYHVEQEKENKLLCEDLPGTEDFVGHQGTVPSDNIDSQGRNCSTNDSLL
Sequence of Nonstructural protein 1 (Q194T2 whole entry): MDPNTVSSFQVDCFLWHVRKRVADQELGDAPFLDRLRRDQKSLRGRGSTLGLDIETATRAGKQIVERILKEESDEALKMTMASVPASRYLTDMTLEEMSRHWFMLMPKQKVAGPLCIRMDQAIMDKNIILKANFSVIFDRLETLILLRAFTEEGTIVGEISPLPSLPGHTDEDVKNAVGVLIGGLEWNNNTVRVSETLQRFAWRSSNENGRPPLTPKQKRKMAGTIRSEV

COc1cccc(-c2nn(-c3ccccc3)cc2/C=C(\C#N)C(=O)NCCCn2ccnc2)c1
IC50 [1]: 74.2 µM (active)
IC50 [2]: 10.5 µM (active)
IC50 [3]: 38.9 µM (active)
IC50 [4]: > 100 µM (inactive)
IC50 [5]: 44.4 µM (active)

COc1cccc(-c2nc(NCCN3CCOCC3)c3ccccc3n2)c1O
AC50 [6]: 51.4 µM (active)
AC50 [7]: 8.35 µM (active)

CCOC(=O)c1c(C)[nH]c(C(=O)OCC(=O)N(CC(C)C)c2c(N)n(Cc3ccccc3)c(=O)[nH]c2=O)c1C
IC50 [3]: 31.8 µM (active)
IC50 [4]: > 100 µM (inactive)
IC50 [5]: 33.7 µM (active)

Cc1cccc(N2CCN(C(=O)c3ccc4c(c3)NC(=O)C(CSCc3cccc(F)c3)N4)CC2C)c1 (configuration not stated)
IC50 [8]: 3.09 µM (active)
IC50 [9]: 13.8 µM (active)

CC(C)Cc1nc2oc3c(Cl)ncnc3c2c2c1CCC2
EC50 [10]: > 40 µM (inactive)
IC50 [11]: > 40 µM (not active)
EC50 [12]: 18 µM (active)
EC50 [13]: 8.07 µM (active)
AC50 [14]: 4.61 µM (active)
EC50 [15]: 11.8 µM (inactive)
IC50 [16]: > 64.6 µM (inactive)
IC50 [17]: > 64.6 µM (inactive)

Cc1nc(SCc2nc3cc(Cl)c(F)cc3[nH]2)c2oc3ccccc3c2n1
IC50 [3]: 38.1 µM (active)
IC50 [4]: > 100 µM (inactive)
IC50 [5]: 42.5 µM (active)

CC(C)C1CC(CCNCc2ccc3c(c2)OCO3)(c2ccccc2)CCO1 (configuration not stated)
EC50 [18]: 5.96 µM (active)
IC50 [16]: > 64.6 µM (inactive)
IC50 [17]: > 64.6 µM (inactive)

CCN1CCC(O)(/C=C/c2ccc(C(C)C)cc2)C(C(=O)/C=C/c2ccc(C(C)C)cc2)C1 (configuration not stated)
EC50 [19]: > 89.2 µM (inactive)

COc1ccc(C(NC(=O)C2CCN(CCOc3ccc(Cl)cc3Cl)CC2)c2ccccc2C)cn1 (configuration not stated)
EC50 [19]: > 89.2 µM (inactive)

CCN1CCN(Cc2ccc(NC(=O)c3cc(NC(=O)C(=O)c4c[nH]c5ccccc45)cc(OC)c3)cc2C(F)(F)F)CC1
EC50 [19]: > 89.2 µM (inactive)
AC50 [20]: 8.98 µM (active)

O=C(Cc1ccc(NC(=O)C2CCN(C(=O)C3CCCCC3)CC2)cc1)Nc1ccc(C(=O)N2CCOCC2)cc1
IC50 [21]: 5.51 µM (active)

COc1ccc(/C=N/NC(=O)Cn2c(Cc3ccc(OC)c(OC)c3)nc3ccccc32)cc1
IC50 [21]: > 73.4 µM (inactive)

COc1cccc(-c2ccc3c(c2)O[C@H](CN(C)C(=O)C2CCOCC2)[C@H](C)CN([C@H](C)CO)S3(=O)=O)c1
AC50 [6]: 15.8 µM (active)

C#CCN(C[C@H]1[C@H](OC(=O)NCc2ccccc2)[C@H](OC(=O)NCc2ccccc2)C[C@H]2C(=O)N(c3ccccc3)C(=O)[C@@H]12)S(=O)(=O)c1ccc(C)cc1
IC50 [8]: 16.5 µM (active)
IC50 [9]: 42.3 µM (active)

O=C1NC[C@@H](CCCCN2C[C@H](Cc3ccc(O)cc3)N(CCC3CCCCC3)C(=O)C2=O)N(CC2CCCCC2)C1=O
IC50 [8]: 8.3 µM (active)
IC50 [9]: 37.2 µM (active)
